Results published in US10695310B2, “D-serine treatment for neurological disorders that cause seizures” (Florida State University Research Foundation, Inc., priority 2013, dated 2020).

How the values were obtained:
pilocarpine treated rats = experiment: Video-monitored seizure activity in pilocarpine treated rats (temporal lobe epilepsy model), D-serine infused at the medial entorhinal cortex; assay type: in vivo, Sprague-Dawley rats
Method: (§1) Male Sprague-Dawley rats weighing about 200 grams were treated with a single systemic treatment of the cholinergic muscarinic agonist pilocarpine to mimic temporal lobe epilepsy as described by Kumar and Buckmaster in Journal of Neuroscience 26: 4613-4623 (2006), which is incorporated by reference herein. The rats were unilaterally implanted with a brain cannula and allowed to recover for three days prior to being treated with pilocarpine. The pilocarpine dose was 380 mg/kg. Following control of status epilepticus with diazepam and a latent period, 90% of the pilocarpine treated rats developed chronic spontaneous seizures with an underlying pathology that mimicked the kind seen in human patients with temporal lobe epilepsy. After pilocarpine treatment, a test group of rats was administered D-serine and a control group of rats was administered aCSF daily for 12 days. The first administration occurred two hours after pilocarpine treatment. The rats were video-monitored forty hours per week for frank seizure activity for the duration of the infusions.

[1] = test system: LIII of the medial entorhinal cortex; experiment: Stereological cell count in LIII of the medial entorhinal cortex, Nissl-stained brain slices of pilocarpine treated rats; assay type: in vivo, Sprague-Dawley rats
Method: as §1, with “infusions. Following the treatment regimen, the rats were euthanized and their brains removed following intra-aortal perfusion with a fixative. Horizontal brain slices 50 micrometers thick from both groups were Nissl-stained for stereological quantification of cell populations in LIII of the medial entorhinal cortex.” for “infusions.”

[2] = test system: GluN3-containing triheteromeric NMDARS; experiment: NMDAR-mediated EPSC at L1 synapses; assay type: cell-based, Sprague-Dawley rats; details: 10 and 100 micromolar; pure NMDAR-mediated EPSC, +30 mV; suppression greatest at the higher concentration
Description: (§2) FIG. 6 is a set of graphs showing the effect of D-serine on EPSCs for L1 and Str synapses of rat brains. The left panel depicts the average consecutive records (≤10) of pure NMDAR-mediated EPSC (pharmacologically isolated in a mixture containing NBQX and picrotoxin—PTX 50 micromolar, —to block AMPA-kainite receptors and GABAA-mediated inhibition) evoked in a single neuron (+30 mV) under the indicated conditions. The middle panel depicts the average percentage change in amplitude for both responses and the time course of these changes with D-serine administration times marked by the shaded region on the time plots.
(§3) The NMDARs at L1 inputs are GluN3-containing triheteromeric NMDARS, whereas the NMDARs at Str inputs are conventional diheteroemric NMDARs. To directly investigate Ca(2+)-permeability of NMDARs at L1 and Str synapses of Sprague-Dawley rats, shifts in reversal potential (Erev) of the synaptically activated currents were measured during local perfusion of isosmotic solutions with different extracellular Ca(2+) concentrations.

[3] = molecular target: T1, conventional diheteroemric NMDARs (Rattus norvegicus, UniProt P35439); experiment: NMDAR-mediated EPSC at Str synapses; assay type: cell-based, Sprague-Dawley rats; details: 10 and 100 micromolar; pure NMDAR-mediated EPSC, +30 mV
T1 construct: effect of D-serine on EPSCs for L1 and Str synapses of rat brains; from tissue; host or cells: rat brain; synaptic currents recorded from single neurons (Str input)
Description: as §2, §3

## N[C@H](CO)C(=O)O [D-serine]
Pilocarpine treated rats; D-serine daily for 12 days, 90% without D-serine
  percentage of pilocarpine treated rats that developed seizures: 25%
Pilocarpine treated rats; pilocarpine treated rats, D-serine daily for 12 days via brain cannula, video-monitored forty hours per week
  rats seizure-free: 75%
[1]; LIII of medial entorhinal cortex, after 12 days treatment following pilocarpine, naive control 159 ± 21, vehicle 77 ± 1
  Mean est. cell count (left + right): 140 ± 10
[1]; after pilocarpine treatment
  reduction of cell loss in LIII: about 80%
[1]; left medial entorhinal cortex of cannulated rats, FIG. 3
  cell loss in LIII from brain slice images: prevented cell loss in LIII
[2]
  effect on L1 EPSCs: significantly suppressed
[3]
  effect on Str EPSCs: neither consistent nor statistically significant
